Measurements from ChEMBL document CHEMBL3885861, “Open TG-GATES”.

Organism: Rattus norvegicus
Assay: Open TG-GATES - Regimen: Single
Assay type: toxicity, organism-based, Sprague-Dawley
Parameters: regimen Single, gender Male, age 6 weeks
Settings: in vivo, po, 15 mg/kg, route gavage, dose level Middle; for APTT / Bas / Eos / Fbg / Hb / Ht / Lym / MCH / MCHC / MCV / Mono / Neu / PT / Plat / RBC / Ret / WBC: tissue Blood; for LIVER: tissue Liver; for A/G / ALP / ALT / AST / BUN / CRE / Ca / Cl / DBIL / GLC / IP / K / LDH / Na / PL / RALB / TBIL / TC / TG / TP / gamma-GTP: tissue Plasma

C=C(C)[C@H]1Cc2c(ccc3c2O[C@@H]2COc4cc(OC)c(OC)cc4[C@@H]2C3=O)O1 [ROTENONE]
TERMINAL_BW (3 h): 196.9 g
APTT (3 h): 16.9 s
Bas (3 h): 0%
Eos (3 h): 0.8%
Fbg (3 h): 214 mg/dL
Hb (3 h): 13.1 g/dL
Ht (3 h): 40.1%
Lym (3 h): 63.8%
MCH (3 h): 20.7 pg
MCHC (3 h): 32.6%
MCV (3 h): 63.4 fL
Mono (3 h): 13.6%
Neu (3 h): 22%
PT (3 h): 12.4 s
Plat (3 h): 122.6 x10_4/uL
RBC (3 h): 634 x10_4/ul
Ret (3 h): 8.9%
WBC (3 h): 89.2 x10_2/uL
LIVER (3 h): 8.7 g
A/G (3 h): 2.4
ALP (3 h): 1502.2 IU/L
ALT (3 h): 37.8 IU/L
AST (3 h): 71.4 IU/L
BUN (3 h): 14.2 mg/dL
CRE (3 h): 0.4 mg/dL
Ca (3 h): 10.9 mg/dL
Cl (3 h): 104.2 meq/L
DBIL (3 h): 0.01 mg/dL
GLC (3 h): 191.6 mg/dL
IP (3 h): 8.8 mg/dL
K (3 h): 4 meq/L
LDH (3 h): 106.6 IU/L
Na (3 h): 141 meq/L
PL (3 h): 126.8 mg/dL
RALB (3 h): 3.9 g/dL
TBIL (3 h): 0.038 mg/dL
TC (3 h): 82 mg/dL
TG (3 h): 37.4 mg/dL
TP (3 h): 5.5 g/dL
gamma-GTP (3 h): 0.8 IU/L
TERMINAL_BW (6 h): 198.2 g
APTT (6 h): 16.4 s
Bas (6 h): 0%
Eos (6 h): 0.8%
Fbg (6 h): 209.6 mg/dL
Hb (6 h): 13.2 g/dL
Ht (6 h): 40.1%
Lym (6 h): 75.8%
MCH (6 h): 21 pg
MCHC (6 h): 32.9%
MCV (6 h): 63.9 fL
Mono (6 h): 5.4%
Neu (6 h): 18.2%
PT (6 h): 12.4 s
Plat (6 h): 127.4 x10_4/uL
RBC (6 h): 628.4 x10_4/ul
Ret (6 h): 8.2%
WBC (6 h): 100.4 x10_2/uL
LIVER (6 h): 8.7 g
A/G (6 h): 2.3
ALP (6 h): 1188.8 IU/L
ALT (6 h): 33.6 IU/L
AST (6 h): 68 IU/L
BUN (6 h): 11.8 mg/dL
CRE (6 h): 0.4 mg/dL
Ca (6 h): 11 mg/dL
Cl (6 h): 103.8 meq/L
DBIL (6 h): 0.01 mg/dL
GLC (6 h): 194 mg/dL
IP (6 h): 9.7 mg/dL
K (6 h): 4 meq/L
LDH (6 h): 84.2 IU/L
Na (6 h): 140.6 meq/L
PL (6 h): 139.2 mg/dL
RALB (6 h): 3.7 g/dL
TBIL (6 h): 0.044 mg/dL
TC (6 h): 79.8 mg/dL
TG (6 h): 74.6 mg/dL
TP (6 h): 5.4 g/dL
gamma-GTP (6 h): 0.4 IU/L
TERMINAL_BW (9 h): 198.7 g
APTT (9 h): 16.4 s
Bas (9 h): 0%
Eos (9 h): 0.2%
Fbg (9 h): 217 mg/dL
Hb (9 h): 12.7 g/dL
Ht (9 h): 38.7%
Lym (9 h): 79.2%
MCH (9 h): 21 pg
MCHC (9 h): 32.9%
MCV (9 h): 63.7 fL
Mono (9 h): 6.8%
Neu (9 h): 13.6%
PT (9 h): 12.7 s
Plat (9 h): 133.8 x10_4/uL
RBC (9 h): 607.8 x10_4/ul
Ret (9 h): 8.8%
WBC (9 h): 91.4 x10_2/uL
LIVER (9 h): 8.3 g
A/G (9 h): 2.4
ALP (9 h): 1265 IU/L
ALT (9 h): 29.8 IU/L
AST (9 h): 65.6 IU/L
BUN (9 h): 10.4 mg/dL
CRE (9 h): 0.4 mg/dL
Ca (9 h): 11.4 mg/dL
Cl (9 h): 104.2 meq/L
DBIL (9 h): 0.01 mg/dL
GLC (9 h): 186 mg/dL
IP (9 h): 10 mg/dL
K (9 h): 4.1 meq/L
LDH (9 h): 103.8 IU/L
Na (9 h): 139.8 meq/L
PL (9 h): 132.2 mg/dL
RALB (9 h): 3.7 g/dL
TBIL (9 h): 0.044 mg/dL
TC (9 h): 79.2 mg/dL
TG (9 h): 40 mg/dL
TP (9 h): 5.2 g/dL
gamma-GTP (9 h): 1 IU/L
TERMINAL_BW (24 h): 213.8 g
APTT (24 h): 15.5 s
Bas (24 h): 0%
Eos (24 h): 0.8%
Fbg (24 h): 216 mg/dL
Hb (24 h): 12.8 g/dL
Ht (24 h): 38.8%
Lym (24 h): 78.6%
MCH (24 h): 21.5 pg
MCHC (24 h): 32.9%
MCV (24 h): 65.3 fL
Mono (24 h): 5.6%
Neu (24 h): 15%
PT (24 h): 11.8 s
Plat (24 h): 113 x10_4/uL
RBC (24 h): 595 x10_4/ul
Ret (24 h): 8.1%
WBC (24 h): 100 x10_2/uL
LIVER (24 h): 11 g
A/G (24 h): 2.6
ALP (24 h): 1529.4 IU/L
ALT (24 h): 36 IU/L
AST (24 h): 67 IU/L
BUN (24 h): 17.2 mg/dL
CRE (24 h): 0.4 mg/dL
Ca (24 h): 11.6 mg/dL
Cl (24 h): 104.2 meq/L
DBIL (24 h): 0.012 mg/dL
GLC (24 h): 187 mg/dL
IP (24 h): 7.4 mg/dL
K (24 h): 4.4 meq/L
LDH (24 h): 112.8 IU/L
Na (24 h): 140.4 meq/L
PL (24 h): 168.4 mg/dL
RALB (24 h): 4 g/dL
TBIL (24 h): 0.032 mg/dL
TC (24 h): 88.8 mg/dL
TG (24 h): 152 mg/dL
TP (24 h): 5.6 g/dL
gamma-GTP (24 h): 0.4 IU/L
